According to PubChem BioAssay AID1996:
In brackets after ≈: the same amount, converted by molar mass.

conditions: buffer; pH 7.4; 200.0 µM

solubility kinetic [µg/mL]	SMILES
3.1 (≈ 12.3 µM)	CC(=O)c1sc(-c2cccc(Cl)c2)nc1C
6.4 (≈ 15.7 µM)	COc1cc(OC)cc(C(=O)Nc2ccc(C(=O)Nc3ccccc3OC)cc2)c1
37.9 (≈ 141 µM)	COc1ccc(-c2nc3ccccc3c(=O)n2O)cc1
8.4 (≈ 24.9 µM)	CCc1noc(C)c1C(=O)OCC(=O)NCc1ccc(Cl)cc1
40.8 (≈ 121 µM)	CCC(CC)C(=O)Nc1cccc(C(=O)NCCc2ccccc2)c1
1 (≈ 2.34 µM)	C=CCN(c1ccccc1OC)S(=O)(=O)c1cccc(C(=O)NCc2ccco2)c1
42.4 (≈ 143 µM)	CC(=O)c1cnc(Oc2cc(Cl)ccc2Cl)nc1C
40.3 (≈ 85.7 µM)	CCN(CC)S(=O)(=O)c1cccc(NC(=O)COC(=O)c2cncc(Br)c2)c1
> 44	Cc1ccc(S(=O)(=O)Nc2c(C)nn(C)c2C)c(C)c1
36.5 (≈ 137 µM)	CCC1(Cc2ccccc2)NC(=O)c2ccccc2O1 (stereo not given)
> 44	CCC1CCCCN1C(=O)CSc1nc(C)cc(C)n1 (stereo not given)
6 (≈ 27.9 µM)	O=C(Nc1nc2ccccc2[nH]1)C1CCC1
4.1 (≈ 15.3 µM)	COc1ccc(C(=O)Nc2nc3ccccc3[nH]2)cc1
37 (≈ 145 µM)	Cc1ccc(SCc2cn3ccccc3n2)cc1
> 49.9	COc1ccccc1CN(C)C(=O)COC(=O)c1c(C)noc1C
29.6 (≈ 84.9 µM)	COc1ccc2c(c1)c(C(=O)CN1CCc3ccccc3C1)c(C)n2C
3.9 (≈ 18.3 µM)	CCOc1cccc2sc(Cl)nc12
0.7 (≈ 2.2 µM)	CN(C)c1cc(-c2ccc(Cl)c(Cl)c2)oc(=O)c1Cl
2.9 (≈ 10.1 µM)	CCCOc1ccc(-c2csc3nc[nH]c(=O)c23)cc1
> 52.8	CCN(CC)CCSc1nc2ccc(OC)cc2[nH]1.Cl
9.6 (≈ 28.1 µM)	CCOc1ccccc1NC(=O)C(=O)CC(=O)c1cccc(OC)c1
> 47	Cc1cccc(OCC(=O)NCCNC(=O)c2cccnc2)c1

The next lines start with the compound.

SMILES	solubility kinetic [µg/mL]
Cc1cc(NC(=O)COc2ccccc2)ccc1Cl	1.9 (≈ 6.89 µM)
O=C(Nc1c(C(=O)O)[nH]c2ccccc12)c1cccc(C(F)(F)F)c1	> 52.2
O=S(=O)(Nc1ccccc1N1CCCCC1)c1cccs1	1.2 (≈ 3.72 µM)
CN(C)c1ccc(C(=O)N(Cc2ccccc2)Cc2ccccc2)cc1	< 0.4
Cc1ccc(C(=O)NCCCNC(=O)c2ccco2)cc1	> 42.9
O=c1[nH]c(CSc2ccccc2)nc2c1oc1ccccc12	2.2 (≈ 7.13 µM)
Fc1ccc(C2c3cccn3CCN2C(=S)Nc2cccc(F)c2)cc1 (stereo not given)	5.1 (≈ 13.8 µM)
CC1(c2ccc(Cl)cc2)NC(=O)N(CC(=O)NC2CCCCC2)C1=O (stereo not given)	> 54.6
Cn1cc([N+](=O)[O-])c(C(=O)N2CCCCCC2)n1	> 37.8
Cc1cc(=O)oc2cc(NC(=O)c3ccccc3Cl)ccc12	8 (≈ 25.5 µM)
COC(=O)c1ccccc1NC(=O)c1ccc(F)cc1	< 0.6
Cc1ccc(N2C(=O)N(CC(=O)Nc3ccc([N+](=O)[O-])cc3)C(=O)C2C)cc1 (stereo not given)	6 (≈ 15.7 µM)
CC(C(=O)Nc1ccccc1)C(=O)Nc1ccccc1	21.8 (≈ 81.2 µM)
NC(=O)c1ccc(Oc2ccc(Cl)cc2)c([N+](=O)[O-])c1	2 (≈ 6.83 µM)
Cc1ccccc1OCCNCC(C)O.O=C(O)C(=O)O (stereo not given)	27
CC(=O)NC(CC(=O)N1CCCC1)c1ccccc1 (stereo not given)	> 39.1
NS(=O)(=O)c1cccc(NC(=O)COC(=O)CSCc2ccccc2)c1	> 59.2
Nc1cc(Cl)ccc1C(=O)OCC(=O)NCc1cccs1	7.7 (≈ 23.7 µM)
COc1cccc(CN2CCN(c3ncccn3)CC2)c1OC	35.7 (≈ 114 µM)

SMILES	solubility kinetic [µg/mL]
CNC(=O)COc1ccc(Cl)c2cccnc12	> 37.6
O=C(NC1CCCC1)c1cccc(Cl)c1	32.6 (≈ 146 µM)
Cn1c(N)c(C(=O)COC(=O)c2ccccc2C(=O)c2ccc(Cl)c([N+](=O)[O-])c2)c(=O)n(C)c1=O	3.2 (≈ 6.39 µM)
COc1cc(C(=O)OC(C)C(=O)N2CCCC2)cc2c1OCCO2 (stereo not given)	> 50.3
Cc1cc(C(=O)Nc2ccccc2C)c2ccccc2n1	34.7 (≈ 126 µM)
Nc1cccc(CP(=O)(c2ccccc2)c2ccccc2)c1	> 46.1
Cc1nc2ccccc2c(=O)n1-c1ccc(-c2ccccc2)cc1	< 0.3
O=C(NCc1ccc(F)cc1F)Nc1cnccc1C(F)(F)F	> 49.7
CC(NC(=O)c1ccc(Br)o1)c1ccc(-n2ccnc2)cc1 (stereo not given)	> 54
Cc1ccc2c(CN3CCCCC3C)cc(=O)oc2c1.Cl (stereo not given)	35.6
CC1N(C(=O)N(C)C)CCN1S(=O)(=O)c1ccccc1 (stereo not given)	> 44.6
Cl.O=C(CN1CCCC1)N1c2ccccc2C=Cc2ccccc21	> 51.1
N#C/C(=C\c1cccnc1)C(=O)Nc1ccc(O)cc1F	> 42.5
CC(C)N(c1ccccc1)c1ccc(NC(=S)NCCN(C)C)cc1	44 (≈ 123 µM)
Cc1cccc(NC(=O)CCN2C(=O)c3ccccc3C2=O)c1	> 46.3
Cc1ccc(C(=O)O)cc1NC(=O)C1=CSCCO1	> 41.9
Cc1cc(C)cc(NC(=O)COC(=O)CC2CCCC2)c1	21.1 (≈ 72.9 µM)
O=C(/C=C/c1cccc([N+](=O)[O-])c1)OCC(=O)N1CCN(C(=O)c2ccco2)CC1	30.9 (≈ 74.7 µM)
O=[N+]([O-])C1=CC=C2C(=NC3(CCCCC3)N2O)C1=NCCc1ccccc1	1.4 (≈ 3.82 µM)
